Like-named read-outs stand apart in the source and are kept apart here.
Legend:
CDK9/Cyclin K = CDK9/Cyclin K (Homo sapiens, UniProt P50750); experiment: NanoBRET live-cell target engagement, NanoLuc-CDK9/Cyclin K in HEK-293; type: binding; conditions: 10µM, read-out: CDK9/K Inhibition at 10µM (%)
CDK13/Cyclin K = CDK13/Cyclin K (Homo sapiens, UniProt Q14004); experiment: NanoBRET live-cell target engagement, CDK13-NanoLuc/Cyclin K in HEK-293; type: binding; conditions: 10µM, read-out: CDK13/K Inhibition at 10µM (%)
CDK17/Cyclin Y = CDK17/Cyclin Y (Homo sapiens, UniProt Q00537); experiment: NanoBRET live-cell target engagement, CDK17-NanoLuc/Cyclin Y in HEK-293; type: binding; conditions: for IC50: read-out: CDK17/Y IC50; for inhibition at 10 µM: read-out: CDK17/Y Inhibition at 10µM (%), 10µM
CDK11A/Cyclin L2 = target: T1, CDK11A/Cyclin L2 (Homo sapiens, UniProt Q9UQ88); experiment: NanoBRET live-cell target engagement, CDK11A-NanoLuc/Cyclin L2 in HEK-293; type: binding; conditions: read-out: CDK11a/L2 Inhibition at 10µM (%), 10µM
T1 sequence (Q9UQ88 1-783): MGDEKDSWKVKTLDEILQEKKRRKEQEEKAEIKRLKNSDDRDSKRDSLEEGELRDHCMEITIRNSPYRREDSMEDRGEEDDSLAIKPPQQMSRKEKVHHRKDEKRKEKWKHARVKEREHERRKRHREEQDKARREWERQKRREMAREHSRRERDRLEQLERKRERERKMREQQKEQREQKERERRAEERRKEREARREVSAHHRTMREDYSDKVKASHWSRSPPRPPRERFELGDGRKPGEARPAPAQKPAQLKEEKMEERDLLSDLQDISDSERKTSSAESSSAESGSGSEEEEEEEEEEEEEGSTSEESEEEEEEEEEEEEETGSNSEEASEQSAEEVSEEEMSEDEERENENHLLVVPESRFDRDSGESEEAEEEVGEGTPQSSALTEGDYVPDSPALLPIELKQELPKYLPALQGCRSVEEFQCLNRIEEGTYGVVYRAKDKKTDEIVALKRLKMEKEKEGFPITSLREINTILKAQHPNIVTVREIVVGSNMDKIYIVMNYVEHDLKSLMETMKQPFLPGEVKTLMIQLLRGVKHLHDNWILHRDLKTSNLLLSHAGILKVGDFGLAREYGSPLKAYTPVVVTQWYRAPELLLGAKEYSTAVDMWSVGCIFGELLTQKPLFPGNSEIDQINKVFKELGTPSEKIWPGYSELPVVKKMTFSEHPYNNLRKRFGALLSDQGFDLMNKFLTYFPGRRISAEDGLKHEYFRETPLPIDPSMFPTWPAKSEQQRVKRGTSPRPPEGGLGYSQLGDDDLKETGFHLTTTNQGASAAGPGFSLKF

CDK4/Cyclin D1 = CDK4/Cyclin D1 (Homo sapiens, UniProt P11802); experiment: NanoBRET live-cell target engagement, NanoLuc-CDK4/Cyclin D1 in HEK-293; type: binding; conditions: for inhibition at 10 µM: read-out: CDK4/D1 Inhibition at 10µM (%); for IC50: read-out: CDK4/D1 IC50
CDK16/Cyclin Y = CDK16/Cyclin Y (Homo sapiens, UniProt Q00536); experiment: NanoBRET live-cell target engagement, CDK16-NanoLuc/Cyclin Y in HEK-293; type: binding; conditions: for IC50: read-out: CDK16/Y IC50; for inhibition at 10 µM: read-out: CDK16/Y Inhibition at 10µM (%), 10µM
CDK18/Cyclin Y = CDK18/Cyclin Y (Homo sapiens, UniProt Q07002); experiment: NanoBRET live-cell target engagement, CDK18-NanoLuc/Cyclin Y in HEK-293; type: binding; conditions: for IC50: read-out: CDK18/Y IC50; for inhibition at 10 µM: read-out: CDK18/Y Inhibition at 10µM (%), 10µM
CDK10/Cyclin L2 = CDK10/Cyclin L2 (Homo sapiens, UniProt Q15131); experiment: NanoBRET live-cell target engagement, CDK10-NanoLuc/Cyclin L2 in HEK-293; conditions: for inhibition at 10 µM: read-out: CDK10/L2 Inhibition at 10µM (%), 10µM
CDK2/Cyclin E1 = CDK2/Cyclin E1 (Homo sapiens, UniProt P24941); experiment: NanoBRET live-cell target engagement, CDK2-NanoLuc/Cyclin E1 in HEK-293; type: binding; conditions: for inhibition at 10 µM: read-out: CDK2/E1 Inhibition at 10µM (%); for CDK2 Occupancy (%): Panel A

Chain of CDK16/Cyclin Y (Q00536 whole entry): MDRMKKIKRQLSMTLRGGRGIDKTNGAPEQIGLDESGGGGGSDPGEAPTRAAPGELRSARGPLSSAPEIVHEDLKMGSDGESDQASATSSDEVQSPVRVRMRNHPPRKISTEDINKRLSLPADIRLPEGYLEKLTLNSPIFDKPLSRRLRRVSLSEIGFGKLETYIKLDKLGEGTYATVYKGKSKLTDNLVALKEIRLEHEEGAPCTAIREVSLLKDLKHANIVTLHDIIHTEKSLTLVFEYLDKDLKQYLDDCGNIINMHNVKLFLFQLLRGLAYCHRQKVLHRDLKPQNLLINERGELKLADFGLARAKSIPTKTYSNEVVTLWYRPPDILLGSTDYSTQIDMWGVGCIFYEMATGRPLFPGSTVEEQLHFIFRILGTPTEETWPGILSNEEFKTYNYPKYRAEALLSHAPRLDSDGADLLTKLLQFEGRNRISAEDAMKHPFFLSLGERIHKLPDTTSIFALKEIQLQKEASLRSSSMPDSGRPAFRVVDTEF
Chain of CDK16/Cyclin Y (Q8ND76 whole entry partner): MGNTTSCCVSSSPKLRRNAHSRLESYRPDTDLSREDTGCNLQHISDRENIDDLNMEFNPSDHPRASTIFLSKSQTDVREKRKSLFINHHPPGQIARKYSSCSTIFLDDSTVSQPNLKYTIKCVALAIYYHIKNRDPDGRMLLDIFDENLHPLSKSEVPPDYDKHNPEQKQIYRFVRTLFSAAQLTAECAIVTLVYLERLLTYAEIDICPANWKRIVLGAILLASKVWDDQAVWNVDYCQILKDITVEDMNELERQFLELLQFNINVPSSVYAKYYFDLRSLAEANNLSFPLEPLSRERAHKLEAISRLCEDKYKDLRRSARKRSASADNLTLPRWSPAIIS
Chain of CDK4/Cyclin D1 (P11802 whole entry): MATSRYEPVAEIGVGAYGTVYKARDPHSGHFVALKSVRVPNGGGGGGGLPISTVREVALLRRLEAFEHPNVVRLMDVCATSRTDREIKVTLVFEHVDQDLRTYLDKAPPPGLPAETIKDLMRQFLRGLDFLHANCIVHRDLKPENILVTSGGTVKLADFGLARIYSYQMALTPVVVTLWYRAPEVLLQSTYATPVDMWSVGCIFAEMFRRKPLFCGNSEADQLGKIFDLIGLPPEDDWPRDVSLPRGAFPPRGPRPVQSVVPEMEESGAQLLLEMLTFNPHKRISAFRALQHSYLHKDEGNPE
Chain of CDK4/Cyclin D1 (P24385 whole entry partner): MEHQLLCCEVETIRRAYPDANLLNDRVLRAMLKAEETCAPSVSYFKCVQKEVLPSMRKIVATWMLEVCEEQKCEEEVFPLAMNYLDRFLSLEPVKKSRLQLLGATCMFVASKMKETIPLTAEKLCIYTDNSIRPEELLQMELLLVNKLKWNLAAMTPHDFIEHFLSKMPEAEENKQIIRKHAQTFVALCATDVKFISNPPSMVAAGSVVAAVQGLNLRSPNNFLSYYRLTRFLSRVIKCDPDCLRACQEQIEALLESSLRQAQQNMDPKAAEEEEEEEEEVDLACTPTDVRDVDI
Chain of CDK18/Cyclin Y (Q07002 whole entry): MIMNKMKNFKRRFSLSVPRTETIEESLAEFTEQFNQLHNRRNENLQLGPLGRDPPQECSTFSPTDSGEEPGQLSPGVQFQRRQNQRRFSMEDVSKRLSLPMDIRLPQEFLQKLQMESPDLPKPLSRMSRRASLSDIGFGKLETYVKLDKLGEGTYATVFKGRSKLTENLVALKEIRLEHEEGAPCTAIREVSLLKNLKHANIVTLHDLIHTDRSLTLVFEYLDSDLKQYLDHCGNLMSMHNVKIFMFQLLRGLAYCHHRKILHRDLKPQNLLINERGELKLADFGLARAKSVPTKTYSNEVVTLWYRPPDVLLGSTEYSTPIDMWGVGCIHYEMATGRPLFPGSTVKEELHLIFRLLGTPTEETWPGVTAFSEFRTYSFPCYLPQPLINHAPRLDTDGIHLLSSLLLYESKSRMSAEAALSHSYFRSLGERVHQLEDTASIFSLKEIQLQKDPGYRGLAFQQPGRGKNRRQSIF
Chain of CDK18/Cyclin Y (Q8ND76 whole entry partner): as the sequence (Q8ND76 whole entry partner) above
Chain of CDK10/Cyclin L2 (Q15131 whole entry): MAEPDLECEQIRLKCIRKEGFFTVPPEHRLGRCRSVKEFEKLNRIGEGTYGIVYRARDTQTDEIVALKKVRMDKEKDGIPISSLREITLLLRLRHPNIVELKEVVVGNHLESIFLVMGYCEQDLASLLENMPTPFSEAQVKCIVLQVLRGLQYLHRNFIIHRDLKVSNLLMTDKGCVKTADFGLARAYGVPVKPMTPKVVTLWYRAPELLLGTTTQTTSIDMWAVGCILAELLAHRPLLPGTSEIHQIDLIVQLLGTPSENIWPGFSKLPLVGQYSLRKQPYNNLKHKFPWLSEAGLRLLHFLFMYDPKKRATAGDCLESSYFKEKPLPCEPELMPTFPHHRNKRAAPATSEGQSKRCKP
Chain of CDK17/Cyclin Y (Q00537 whole entry): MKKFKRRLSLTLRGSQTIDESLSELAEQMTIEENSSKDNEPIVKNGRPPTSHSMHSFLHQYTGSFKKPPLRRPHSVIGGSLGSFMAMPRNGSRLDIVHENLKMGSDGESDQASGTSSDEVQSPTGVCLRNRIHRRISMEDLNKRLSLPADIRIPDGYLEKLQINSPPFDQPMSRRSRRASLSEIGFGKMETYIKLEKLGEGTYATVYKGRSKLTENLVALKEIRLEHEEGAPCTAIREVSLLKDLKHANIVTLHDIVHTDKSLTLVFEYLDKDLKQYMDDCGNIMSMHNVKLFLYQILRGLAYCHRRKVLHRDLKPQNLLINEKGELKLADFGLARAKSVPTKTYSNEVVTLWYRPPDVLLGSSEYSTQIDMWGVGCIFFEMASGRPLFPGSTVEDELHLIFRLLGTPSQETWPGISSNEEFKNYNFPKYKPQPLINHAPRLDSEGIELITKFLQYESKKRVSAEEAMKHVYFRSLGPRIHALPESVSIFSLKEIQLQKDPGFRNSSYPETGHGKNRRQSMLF
Chain of CDK17/Cyclin Y (Q8ND76 whole entry partner): as the sequence (Q8ND76 whole entry partner) above
Chain of CDK13/Cyclin K (O75909 whole entry): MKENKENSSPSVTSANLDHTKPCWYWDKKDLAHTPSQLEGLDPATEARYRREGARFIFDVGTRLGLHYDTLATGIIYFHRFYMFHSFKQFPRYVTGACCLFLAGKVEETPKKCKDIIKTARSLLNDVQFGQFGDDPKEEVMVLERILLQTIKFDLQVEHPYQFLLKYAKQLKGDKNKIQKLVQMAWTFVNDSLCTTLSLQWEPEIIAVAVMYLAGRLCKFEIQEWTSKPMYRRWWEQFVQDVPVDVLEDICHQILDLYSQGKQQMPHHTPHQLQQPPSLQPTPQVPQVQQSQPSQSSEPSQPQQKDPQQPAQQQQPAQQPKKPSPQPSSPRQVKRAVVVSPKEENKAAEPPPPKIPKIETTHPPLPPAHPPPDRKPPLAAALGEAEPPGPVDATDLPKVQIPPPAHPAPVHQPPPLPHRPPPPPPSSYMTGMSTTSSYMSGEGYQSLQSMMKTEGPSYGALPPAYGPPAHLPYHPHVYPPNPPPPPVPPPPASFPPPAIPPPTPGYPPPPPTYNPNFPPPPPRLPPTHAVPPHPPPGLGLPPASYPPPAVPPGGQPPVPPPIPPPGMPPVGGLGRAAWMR
Chain of CDK13/Cyclin K (Q14004 other isoform, or with tags, fused parts or gaps): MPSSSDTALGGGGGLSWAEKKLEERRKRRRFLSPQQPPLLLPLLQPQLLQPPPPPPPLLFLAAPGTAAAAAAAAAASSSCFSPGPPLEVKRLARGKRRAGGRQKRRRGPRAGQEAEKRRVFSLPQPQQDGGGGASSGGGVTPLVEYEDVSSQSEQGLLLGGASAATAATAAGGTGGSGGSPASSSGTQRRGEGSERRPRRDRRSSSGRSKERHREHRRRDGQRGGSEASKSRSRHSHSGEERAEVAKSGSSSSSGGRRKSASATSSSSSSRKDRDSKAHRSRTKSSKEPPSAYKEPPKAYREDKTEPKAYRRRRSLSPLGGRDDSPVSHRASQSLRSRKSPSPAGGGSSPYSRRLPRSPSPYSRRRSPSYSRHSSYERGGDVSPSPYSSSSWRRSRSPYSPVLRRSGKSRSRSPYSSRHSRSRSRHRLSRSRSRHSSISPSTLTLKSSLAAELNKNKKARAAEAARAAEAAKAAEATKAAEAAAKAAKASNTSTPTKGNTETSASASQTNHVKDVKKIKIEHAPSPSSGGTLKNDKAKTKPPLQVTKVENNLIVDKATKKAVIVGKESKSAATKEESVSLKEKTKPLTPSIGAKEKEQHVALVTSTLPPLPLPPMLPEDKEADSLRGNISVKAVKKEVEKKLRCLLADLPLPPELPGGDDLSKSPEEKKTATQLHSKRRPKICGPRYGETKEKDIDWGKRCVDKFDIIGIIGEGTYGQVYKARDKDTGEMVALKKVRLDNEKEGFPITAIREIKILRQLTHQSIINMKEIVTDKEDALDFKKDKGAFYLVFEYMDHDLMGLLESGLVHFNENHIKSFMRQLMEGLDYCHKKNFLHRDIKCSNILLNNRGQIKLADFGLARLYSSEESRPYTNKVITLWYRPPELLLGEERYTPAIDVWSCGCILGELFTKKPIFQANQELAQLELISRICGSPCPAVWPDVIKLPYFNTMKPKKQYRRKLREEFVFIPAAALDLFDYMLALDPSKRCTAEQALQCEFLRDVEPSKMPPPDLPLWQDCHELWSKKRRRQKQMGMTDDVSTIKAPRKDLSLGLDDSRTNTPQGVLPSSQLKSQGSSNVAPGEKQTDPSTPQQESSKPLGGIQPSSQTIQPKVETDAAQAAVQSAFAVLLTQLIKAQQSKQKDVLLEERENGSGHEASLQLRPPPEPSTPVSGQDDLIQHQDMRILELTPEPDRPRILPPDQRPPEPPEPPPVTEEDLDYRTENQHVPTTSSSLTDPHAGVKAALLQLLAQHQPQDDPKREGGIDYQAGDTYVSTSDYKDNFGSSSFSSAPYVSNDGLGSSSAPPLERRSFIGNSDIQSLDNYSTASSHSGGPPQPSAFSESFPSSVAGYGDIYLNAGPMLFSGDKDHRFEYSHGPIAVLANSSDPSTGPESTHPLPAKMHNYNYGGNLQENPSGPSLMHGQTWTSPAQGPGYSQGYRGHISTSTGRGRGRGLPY

## COCCN1CCN(Cc2ccc(-c3n[nH]c4c3C(=O)c3c(NC(=O)NN5CCOCC5)cccc3-4)cc2)CC1 [RGB286638]
CDK9/Cyclin K; average of experiments
  inhibition at 10 µM: 94.7%
CDK9/Cyclin K; independent experiment 1
  inhibition at 10 µM: 90.7%
CDK9/Cyclin K; independent experiment 2
  inhibition at 10 µM: 98.8%
CDK13/Cyclin K; average of experiments
  inhibition at 10 µM: 49.1%
CDK13/Cyclin K; independent experiment 1
  inhibition at 10 µM: 33.8%
CDK13/Cyclin K; independent experiment 2
  inhibition at 10 µM: 64.5%
CDK17/Cyclin Y; average (± SEM where n=3)
  IC50: 6.6 nM
CDK17/Cyclin Y; independent experiment 1
  IC50: 7.9 nM
  inhibition at 10 µM: 95.7%
CDK17/Cyclin Y; independent experiment 2
  IC50: 5.3 nM
  inhibition at 10 µM: 92.1%
CDK17/Cyclin Y; average of experiments
  inhibition at 10 µM: 93.9%
CDK11A/Cyclin L2; average of experiments
  inhibition at 10 µM: 41.5%
CDK11A/Cyclin L2; independent experiment 1
  inhibition at 10 µM: 16.8%
CDK11A/Cyclin L2; independent experiment 2
  inhibition at 10 µM: 66.3%
CDK4/Cyclin D1; average of experiments
  inhibition at 10 µM: 99.8%
CDK4/Cyclin D1; independent experiment 1
  inhibition at 10 µM: 99.7%
  IC50: 9.6 nM
CDK4/Cyclin D1; independent experiment 2
  inhibition at 10 µM: 100%
  IC50: 11 nM
CDK4/Cyclin D1; average (± SEM where n=3)
  IC50: 10 nM
CDK16/Cyclin Y; average (± SEM where n=3)
  IC50: 5.2 nM
CDK16/Cyclin Y; independent experiment 1
  IC50: 5.4 nM
  inhibition at 10 µM: 95.2%
CDK16/Cyclin Y; independent experiment 2
  IC50: 5 nM
  inhibition at 10 µM: 92.3%
CDK18/Cyclin Y; average (± SEM where n=3)
  IC50: 10 nM
CDK18/Cyclin Y; independent experiment 1
  IC50: 8.6 nM
  inhibition at 10 µM: 97.4%
CDK18/Cyclin Y; independent experiment 2
  IC50: 11 nM
  inhibition at 10 µM: 102%
CDK18/Cyclin Y; average of experiments
  inhibition at 10 µM: 99.6%
CDK10/Cyclin L2; CDK10/L2 IC50 (nM), average (± SEM where n=3)
  IC50: 790 nM
CDK10/Cyclin L2; CDK10/L2 IC50 (nM), independent experiment 1
  IC50: 790 nM
CDK10/Cyclin L2; CDK10/L2 IC50 (nM), independent experiment 2
  IC50: 780 nM
CDK10/Cyclin L2; IC50 for CDK/cyclin complexes, CDK10/L2, live HEK-293, 2 h, mean ± S.E.M. (n=3) or mean (n=2)
  IC50: 790 nM
CDK10/Cyclin L2; average of experiments
  inhibition at 10 µM: 61.4%
CDK10/Cyclin L2; independent experiment 1
  inhibition at 10 µM: 37.8%
CDK10/Cyclin L2; independent experiment 2
  inhibition at 10 µM: 85.1%
CDK2/Cyclin E1; average of experiments
  inhibition at 10 µM: 84.4%
CDK2/Cyclin E1; independent experiment 1
  inhibition at 10 µM: 83.7%
CDK2/Cyclin E1; independent experiment 2
  inhibition at 10 µM: 85.1%
CDK2/Cyclin E1; LOG10([RGB-286638]) 0.045757 LOG10(µM)
  CDK2 Occupancy (%): 96.9519%
CDK2/Cyclin E1; LOG10([RGB-286638]) 0.522879 LOG10(µM)
  CDK2 Occupancy (%): 98.1016%
CDK2/Cyclin E1; LOG10([RGB-286638]) 1 LOG10(µM)
  CDK2 Occupancy (%): 98.1016%
CDK2/Cyclin E1; LOG10([RGB-286638]) -0.43136 LOG10(µM)
  CDK2 Occupancy (%): 95.1872%
CDK2/Cyclin E1; LOG10([RGB-286638]) -0.90849 LOG10(µM)
  CDK2 Occupancy (%): 90.2941%
CDK2/Cyclin E1; LOG10([RGB-286638]) -1.38561 LOG10(µM)
  CDK2 Occupancy (%): 78.6096%
CDK2/Cyclin E1; LOG10([RGB-286638]) -1.86273 LOG10(µM)
  CDK2 Occupancy (%): 57.754%
CDK2/Cyclin E1; LOG10([RGB-286638]) -2.33985 LOG10(µM)
  CDK2 Occupancy (%): 30.4813%
CDK2/Cyclin E1; LOG10([RGB-286638]) -2.81697 LOG10(µM)
  CDK2 Occupancy (%): 11.4973%
CDK2/Cyclin E1; LOG10([RGB-286638]) -3.29409 LOG10(µM)
  CDK2 Occupancy (%): 5.615%
CDK2/Cyclin E1; LOG10([RGB-286638]) -3.77121 LOG10(µM)
  CDK2 Occupancy (%): 0.2674%
CDK2/Cyclin E1; average (± SEM where n=3), read-out: CDK2/E1 IC50
  IC50: 14 ± 5 nM
CDK2/Cyclin E1; independent experiment 1, read-out: CDK2/E1 IC50
  IC50: 8.9 nM
CDK2/Cyclin E1; independent experiment 2, read-out: CDK2/E1 IC50
  IC50: 9.8 nM
CDK2/Cyclin E1; independent experiment 3, read-out: CDK2/E1 IC50
  IC50: 23 nM
CDK2/Cyclin E1; live HEK-293, 2 h, mean ± S.E.M. (n=3) or mean (n=2), read-out: IC50 for CDK/cyclin complexes, CDK2/E1
  IC50: 12 to 16 nM

From article PMC7265341, “Quantifying CDK inhibitor selectivity in live cells” (Nature Communications, 2020)
